Several values for one entry are separate records, joined by “and”; a condition that tells them apart may be missing. Identical values can stand only once.
What was measured:
human MCF-7 cells = experiment: Visually scored toxicity of NAC-MTN / NAC-DOX at fixed loading (Example 3); format: cell-based; details: 5.1% drug loading, 16 hour incubation
Protocol: Toxicity of NAC-MTN or NAC-DOX, at 50, 16.9, 5.6, and 1.9 ug/ml final drug concentration and 5.1 % drug loading in human MCF-7 cells. Sample A: 15 mg of HSDNA (EX031804A) was combined with 0.76 mg MTN(mw 517.4) or (sample B) 0.76 mg DOX (mw 579.99) to give 152 ug/ml final drug and 5.1% loading in 5 ml final vol. Samples C, D were MTN, or DOX only controls at equivalent final [drug] without HSDNA. Sample E was HSDNA, no drug and sample F was H2O only. MCF-7 cells were trypsinized and plated out previously. Triplicate samples were diluted 0.1 ml in 0.2 ml 1× media to give 3× fold serial dilution in 0.2 ml final. After 16 hour incubation the cells were visually inspected for signs of toxicity. Toxicity was scored as the following: 50%=one half all cells rounded, un-adhered or crenated.

[1] = after 5 days; cited from earlier work
[2] = Stability of NAC-DOX complex in hank's buffered saline (HBSS) at pH 7; format: physicochemical
Protocol: The NAC-DOX complex was tested for stability in hank's buffered saline (HBSS) at pH 7.

MCF7 cells = experiment: Drug loading vs toxicity at fixed [drug], MTT viability assay (Example 4); format: cell-based, human; details: Drug only, without carrier; 0.103 mM DOX; 72 hours
Protocol: FIG. 1. […] NAC-MTN or NAC-DOX were prepared at different weight:weight % of drug:nucleic acid and incubated in cells. For each sample and corresponding % loading, the total drug was held constant at 0.058 mM MTN or 0.1 mM DOX. After incubation in cells, cell viability was assayed via mitochondrial dehydrogenase activity against 3-[4,5-dimethylthiazol-2-yl]-2,5-diphenyl tetrazolium bromide (MTT) and reported as % toxicity relative to untreated cells.
Mitoxantrone (MTN, Sigma Aldrich) and Doxorubicin HCl (DOX) were diluted in HBSS to 1 mg/ml final. DNA, from degraded herring sperm DNA <40 bp (HSDNA, Sigma Aldrich), was prepared in water at 10 mg/ml. The drug was diluted in water or HBSS first, followed by addition of the DNA, in order to prevent precipitation. Precipitation of drug was especially a concern at 40% loading of MTN, which is the loading limit for HSDNA (degraded) and so the DNA is added slowly to the diluted MTN (the reverse addition leads to precipitation). All NAC-MTN formulation stocks were prepared at 0.15 mg/ml final MTN, and different concentration of DNA in order to give 15, 25, and 35.7% final drug loading w/w % of MTN/DNA in 0.5 ml final volume. All NAC-DOX formulations were prepared at 0.3 mg/ml final DOX, and either 5, 10, or 15% loaded drug weight/weight % of DOX/DNA in 0.5 ml final volume. […]

[3] = Dipyridamole precipitation assay, supernatant absorbance A410 (Example 6); format: physicochemical
Protocol: Similar results were obtained for dipyridamole (DPA). Dipyridamole is a coronary vasodilator and functions primarily to reduce platelet adhesion and aggregation. […] Dipyridamole for intravenous injection is given as a sodium chloride or dextrose injection with 5 mg of DPA, 50 mg PEG600, 2 mg tartaric acid, and water at pH 2.7. Dipyridamole is readily soluble in acidic solution, however at higher pH it can precipitate. […] Furthermore, the nucleic acid targeting of dipyridamole can provide unexpected therapeutic benefits by enhancing its accumulation in specific areas of the body.
Dipyridamole (DPA, m.w. 504.6) was prepared as 10.27 mM […] solution in water acidified with HCl. DNA was from HSDNA 428A) 10 mg/ml in H2O prev. heated to 80C.
Prepared samples 1-3 by combining 25 ul of DPA and 0.2 ml DNA to give a turbid solution. Added 7 ul of 1M HCl to clarify, followed by 0.1 ml of 1M potassium phosphate buffer (KP) pH7. Repeated for samples 4-6 and replace DNA with water. […] Read absorbance of 0.3 ml supernatant at A410. Higher values corresponded to more drug solubilized.

[4] = Paclitaxel solubilization by NAC, turbidity OD410 (Example 8); format: physicochemical; details: formulation with a nucleic acid
Protocol: Solubility enhancement of paclitaxel by NAC. Aqueous paclitaxel solutions were prepared with or without DNA, sonicated, stored at room temperature for several hours, and then centrifuged. The pellets were resuspended in 50% ethanol and the precipitated paclitaxel was quantified using a standard absorbance curve at 230 nm. The total percentage of solubilized paclitaxel was calculated using %=100× (1-assy mM)/expected mM.
Materials: Paclitaxel 10.0 mg/ml (0.0118M, m.w. 853.92) in 80% ETOH. HSDNA (herring sperm degraded DNA 428A, Sigma-Aldrich) 10 mg/ml pH7 HSGDNA (genomic, Promega mw range 100 bp-3000 bp) 10 mg/ml. […] 1M potassium phosphate buffer pH5.
Aqueous paclitaxel solutions were prepared by combining 10 ul (0.01 ml) of paclitaxel stock (11.8 mM) with 2.0 ml H2O containing water only, HSGDNA, HSDNA, RNA, or HSDNA/pPEGPEI2K as indicated in the table. Samples were sonicated 3 min. with Branson Sonifier 450 @40% duty, at #3 output level. In 10 mM potassium phosphate pH5.
Let solutions stand 30 min, and read turbidity of 0.3 ml at A410 on the Synergy HT1. Samples were 10 min @2500 rpm on Beckman Allegra21R. The pellet was resuspended in 1.5 ml of 50% ETOH and OD230 nm was taken of a 0.3 ml sample in a Falcon UV clear plate on Synergy HT1. Prepared paclitaxel standard curve, 10 ul of 9.81 mM in 1 ml 50% ETOH was diluted 2×, serially in 5 vials at 0.5 ml final vol. […]

[5] = physiological conditions; cited from earlier work

Row | Compound | Toxicity (visual score) (human MCF-7 cells; 5.6 ug/ml final drug) [%] | Toxicity (visual score) (human MCF-7 cells; 17 ug/ml final drug) | Toxicity (visual score) (human MCF-7 cells; 50 ug/ml final drug) [%] | Toxicity (visual score) (human MCF-7 cells; 1 .9 ug/ml final drug) [%] | other results
1 | O=C1c2c(O)ccc(O)c2C(=O)c2c(NCCNCCO)ccc(NCCNCCO)c21 [C, mitoxantrone] | 90 | 100% | 100 | 20 | 
2 | COc1cccc2c1C(=O)c1c(O)c3c(c(O)c1C2=O)C[C@@](O)(C(=O)CO)C[C@@H]3O[C@H]1C[C@H](N)[C@H](O)[C@H](C)O1 [DOX, doxorubicin] |  | 80-90% |  |  | administered drug recovered in urine [1]: 4-5%; stability in hank's buffered saline (HBSS) at pH 7 [2]: became unstable at pH 7; % Tox (MCF7 cells): 67%
3 | OCCN(CCO)c1nc(N2CCCCC2)c2nc(N(CCO)CCO)nc(N3CCCCC3)c2n1 [DPA, dipyridamole] |  |  |  |  | stability against precipitation ([3]; formulated with the nucleic acid carrier, aqueous solutions at pH 7): stabilized dipyridamole against precipitation; A410 of supernatant ([3]; potassium phosphate buffer pH7, 16 hours, higher = more drug solubilized, replicate samples): 0.388 and 0.396 and 0.401
4 | COc1cccc2c1C(=O)c1c(O)c3c(c(O)c1C2=O)C[C@@](O)(C(=O)CO)C[C@@H]3O[C@H]1C[C@H](N)[C@H](O)[C@H](C)O1 [Sample D, doxorubicin] | 20 | 80% | 100 | 10 | 
5 | CC(=O)O[C@H]1C(=O)[C@@]2(C)[C@H]([C@H](OC(=O)c3ccccc3)[C@]3(O)C[C@H](OC(=O)[C@H](O)[C@@H](NC(=O)c4ccccc4)c4ccccc4)C(C)=C1C3(C)C)[C@]1(OC(C)=O)CO[C@@H]1C[C@@H]2O [paclitaxel] |  |  |  |  | enhancement of solubility of paclitaxel compared with water alone [4]: ≤ 200%
6 | Mylotarg: mAB-calcheamicin conjugate with hydrazone linker |  |  |  |  | drug existing in free form [5]: approximately 50%
